From patent US10597388B2, “Pyridazinone herbicides” (FMC CORPORATION, priority 2014, dated 2020)

What was measured:
Format in all cases: in vivo
[1] = test system: barnyardgrass (Echinochloa crus-galli); assay: Test C greenhouse herbicide test, pre- and postemergence
From the text: (§1) Seeds of plant species selected from blackgrass (Alopecurus myosuroides), ryegrass, Italian (Italian ryegrass, Lolium multiflorum), wheat (winter wheat, Triticum aestivum), galium (catchweed bedstraw, Galium aparine), corn (Zea mays), large crabgrass, large (large crabgrass, Digitaria sanguinalis), foxtail, giant (giant foxtail, Setaria faberii), johnsongrass (Sorghum halepense), lambsquarters (Chenopodium album), morningglory (Ipomoea coccinea), nutsedge, yellow (yellow nutsedge, Cyperus esculentus), pigweed (Amaranthus retroflexus), ragweed (common ragweed, Ambrosia elatior), soybean (Glycine max), barnyardgrass (Echinochloa crus-galli), oilseed rape (Brassica napus), waterhemp (common waterhemp, Amaranthus rudis), and velvetleaf (Abutilon theophrasti) were planted into a blend of loam soil and sand and treated preemergence with test chemicals formulated in a non-phytotoxic solvent mixture which included a surfactant.
(§2) At the same time, plants selected from these crop and weed species and also chickweed (common chickweed, Stellaria media), kochia (Kochia scoparia), and oat, wild (wild oat, Avena fatua), were planted in pots containing Redi-Earth® planting medium (Scotts Company, 14111 Scottslawn Road, Marysville, Ohio 43041) comprising spaghnum peat moss, vermiculite, wetting agent and starter nutrients and treated with postemergence applications of test chemicals formulated in the same manner. Plants ranged in height from 2 to 18 cm (1- to 4-leaf stage) for postemergence treatments. Treated plants and controls were maintained in a greenhouse for 13 to 15 d, after which time all species were compared to controls and visually evaluated. Plant response ratings, summarized in Table C, are based on a scale of 0 to 100 where 0 is no effect and 100 is complete control. A dash (-) response means no test result.

[2] = test system: blackgrass (Alopecurus myosuroides); assay: as above
From the text: as §1, §2

corn (Zea mays) = assay: as above
From the text: as §1, §2

[3] = test system: crabgrass, large (large crabgrass, Digitaria sanguinalis); assay: as above
From the text: as §1, §2

[4] = test system: foxtail, giant (giant foxtail, Setaria faberii); assay: as above
From the text: as §1, §2

[5] = test system: johnsongrass (Sorghum halepense); assay: as above
From the text: as §1, §2

[6] = test system: lambsquarters (Chenopodium album); assay: as above
From the text: as §1, §2

[7] = test system: morningglory (Ipomoea coccinea); assay: as above
From the text: as §1, §2

[8] = test system: pigweed (Amaranthus retroflexus); assay: as above
From the text: as §1, §2

[9] = test system: ragweed (common ragweed, Ambrosia elatior); assay: as above
From the text: as §1, §2

[10] = test system: ryegrass, Italian (Italian ryegrass, Lolium multiflorum); assay: as above
From the text: as §1, §2

soybean (Glycine max) = assay: as above
From the text: as §1, §2

[11] = test system: waterhemp (common waterhemp, Amaranthus rudis); assay: as above
From the text: as §1, §2

[12] = test system: wheat (winter wheat, Triticum aestivum); assay: as above
From the text: as §1, §2

kochia (Kochia scoparia) = assay: Test C greenhouse herbicide test, postemergence
Outline: (§3)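 Postemergence foliar treatment, 1- to 4-leaf stage (2–18 cm), peat/vermiculite medium; greenhouse 13–15 d; visual rating vs controls, 0 = no effect, 100 = complete control; dash = no result.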

[13] = test system: oat, wild (wild oat, Avena fatua); assay: Test C greenhouse herbicide test, postemergence
Outline: as §3

[14] = Postemergence, 31 g ai/ha, 0 to 100 scale (0 no effect, 100 complete control)
[15] = Postemergence, 125 g ai/ha, scale 0 to 100, 0 is no effect, 100 is complete control
[16] = Postemergence, 250 g ai/ha, scale 0 to 100, 0 no effect, 100 complete control, 13 to 15 d
[17] = Preemergence, 31 g ai/ha, scale 0 to 100, 0 is no effect, 100 is complete control
[18] = Preemergence, 62 g ai/ha, scale 0 to 100, 0 is no effect, 100 is complete control
[19] = Preemergence, 125 g ai/ha, scale 0 to 100, 0 is no effect, 100 is complete control
[20] = Preemergence, 250 g ai/ha, scale 0 to 100 (0 no effect, 100 complete control)
[21] = postemergence, 62 g ai/ha, scale 0 to 100, 0 no effect, 100 complete control

CC(=O)Oc1c(C)nn(C)c(=O)c1-c1c(C)sc2c(C)cc(C)cc12 [Compound 27]
30: Plant response rating, Crabgrass, Large [3, 15]
98: Crabgrass, Large plant response rating [3, 20] | Plant response rating, Lambsquarters [6, 16] | Lambsquarters plant response rating [6, 20] | Plant response rating, Morningglory [7, 18] | Plant response rating, Pigweed [8, 17] | Plant response rating, Pigweed [8, 19]
65: Waterhemp plant response rating [11, 14]
100: Plant response rating, Foxtail, Giant [4, 17] | Plant response rating, Foxtail, Giant [4, 18] | Plant response rating, Foxtail, Giant [4, 19] | Foxtail, Giant plant response rating [4, 20] | Morningglory plant response rating [7, 14] | Plant response rating, Morningglory [7, 15] | Plant response rating, Morningglory [7, 16] | Plant response rating, Morningglory [7, 19] | Morningglory plant response rating [7, 20] | Morningglory plant response rating [7, 21] | Plant response rating, Pigweed [8, 18] | Pigweed plant response rating [8, 20] | Plant response rating, Ragweed [9, 18] | Plant response rating, Ragweed [9, 19] | Plant response rating, Waterhemp [11, 19] | Waterhemp plant response rating [11, 20] | Plant response rating, Oat, Wild [13, 16]
70: Blackgrass plant response rating [2, 21] | Plant response rating, Lambsquarters [6, 17] | Ragweed plant response rating [9, 14]
85: Plant response rating, Blackgrass [2, 15] | Plant response rating, Blackgrass [2, 17] | Lambsquarters plant response rating [6, 14] | Lambsquarters plant response rating [6, 21] | Plant response rating, Morningglory [7, 17] | Plant response rating, Pigweed [8, 15] | Plant response rating, Ragweed [9, 15] | Plant response rating, Ryegrass, Italian [10, 17] | Ryegrass, Italian plant response rating [10, 21] | Plant response rating, Waterhemp [11, 18] | Oat, Wild plant response rating [13, 14]
80: Plant response rating, Barnyardgrass [1, 18] | Plant response rating, Crabgrass, Large [3, 18] | Pigweed plant response rating [8, 21] | Plant response rating, Ragweed [9, 17] | Ryegrass, Italian plant response rating [10, 14] | Kochia plant response rating (kochia (Kochia scoparia); [21])
55: Plant response rating, Barnyardgrass [1, 17] | Plant response rating, Crabgrass, Large [3, 17] | Pigweed plant response rating [8, 14]
45: Plant response rating, Crabgrass, Large [3, 16]
95: Plant response rating, Crabgrass, Large [3, 19] | Plant response rating, Foxtail, Giant [4, 16] | Plant response rating, Lambsquarters [6, 18] | Plant response rating, Lambsquarters [6, 19] | Ragweed plant response rating [9, 20] | Ryegrass, Italian plant response rating [10, 20] | Plant response rating, Oat, Wild [13, 15] | Oat, Wild plant response rating [13, 21]
90: Plant response rating, Barnyardgrass [1, 19] | Barnyardgrass plant response rating [1, 20] | Plant response rating, Blackgrass [2, 16] | Plant response rating, Blackgrass [2, 18] | Plant response rating, Blackgrass [2, 19] | Blackgrass plant response rating [2, 20] | Plant response rating, Foxtail, Giant [4, 15] | Plant response rating, Lambsquarters [6, 15] | Plant response rating, Pigweed [8, 16] | Plant response rating, Ragweed [9, 16] | Plant response rating, Ryegrass, Italian [10, 15] | Plant response rating, Ryegrass, Italian [10, 16] | Plant response rating, Ryegrass, Italian [10, 18] | Plant response rating, Ryegrass, Italian [10, 19] | Plant response rating, Waterhemp [11, 16] | Plant response rating, Kochia (kochia (Kochia scoparia); [15]) | Plant response rating, Kochia (kochia (Kochia scoparia); [16])
50: Plant response rating, Barnyardgrass [1, 16] | Blackgrass plant response rating [2, 14]
25: Plant response rating, Barnyardgrass [1, 15] | Crabgrass, Large plant response rating [3, 21] | Johnsongrass plant response rating [5, 20]
10: Johnsongrass plant response rating [5, 14] | Plant response rating, Johnsongrass [5, 16] | Plant response rating, Soybean (soybean (Glycine max); [19]) | Plant response rating, Waterhemp [11, 15] | Wheat plant response rating [12, 20]
5: Plant response rating, Corn (corn (Zea mays); [19]) | Corn plant response rating (corn (Zea mays); [21]) | Crabgrass, Large plant response rating [3, 14] | Plant response rating, Johnsongrass [5, 18] | Plant response rating, Johnsongrass [5, 19] | Plant response rating, Wheat [12, 15] | Plant response rating, Wheat [12, 16]
20: Barnyardgrass plant response rating [1, 21]
75: Foxtail, Giant plant response rating [4, 21] | Ragweed plant response rating [9, 21] | Kochia plant response rating (kochia (Kochia scoparia); [14])
0: Corn plant response rating (corn (Zea mays); [14]) | Plant response rating, Corn (corn (Zea mays); [15]) | Plant response rating, Corn (corn (Zea mays); [17]) | Plant response rating, Corn (corn (Zea mays); [18]) | Corn plant response rating (corn (Zea mays); [20]) | Plant response rating, Johnsongrass [5, 17] | Johnsongrass plant response rating [5, 21] | Soybean plant response rating (soybean (Glycine max); [14]) | Plant response rating, Soybean (soybean (Glycine max); [15]) | Plant response rating, Soybean (soybean (Glycine max); [16]) | Plant response rating, Soybean (soybean (Glycine max); [18]) | Soybean plant response rating (soybean (Glycine max); [20]) | Soybean plant response rating (soybean (Glycine max); [21]) | Wheat plant response rating [12, 14] | Plant response rating, Wheat [12, 18] | Plant response rating, Wheat [12, 19] | Wheat plant response rating [12, 21]
60: Foxtail, Giant plant response rating [4, 14] | Waterhemp plant response rating [11, 21]
15: Barnyardgrass plant response rating [1, 14] | Plant response rating, Corn (corn (Zea mays); [16])
